Measurements published in patent US6403054B1, “Ternary ligand complexes useful as radiopharmaceuticals” (Bristol-Myers Squibb Pharma Company, priority 1997, dated 2002).

Assay: Canine imaging and biodistribution model
Details: for route of excretion: i.v. infusion, gamma camera images and biodistribution
Protocol: A canine imaging and biodistribution model was used to evaluate the radiopharmaceuticals of Examples 5 and 7.
Adult beagle dogs of either sex (9-13 kg) were anesthetized with pentobarbital sodium (35 mg/kg,i.v.) and ventilated with room air via an endotracheal tube (12 strokes/min, 25 ml/kg). For arterial pressure determination, the right femoral artery was cannulated with a saline-filled polyethylene catheter (PE-240) and connected to a Statham pressure transducer (P23ID; Oxnard, Calif.). Mean arterial blood pressure was determined via damping the pulsatile pressure signal. Heart rate was monitored using a cardiotachometer (Biotach, Grass Quincy, Mass.) triggered from a lead II electrocardiogram generated by limb leads. All parameters were monitored continuously on a polygraph recorder (model 7D Grass) at a paper speed of 10 mm/min or 25 mm/sec. The right femoral vein was cannulated (PE-240) for drug administration. A control blood sample was collected for hematology analysis on an MCA210 (APTT, PT), K1000 (cell number), and Chrono Log Aggregometer (collagen induced platelet aggregation). Blood samples were also collected immediately after infusion, 30, 60, and 120 minutes post infusion. Samples of blood were retained for blood clearance determination at control, immediately following infusion, 15, 30, 60, 90, and 120 minutes post infusion. Administration of test article was given no earlier than 20 minutes post surgery. The test article was administered as a 10 cc slow infusion over 5 minutes. Images were acquired by a gamma camera over 5 minutes and taken during infusion, 5, 15, 30, 60, 90, 120 minutes post infusion (Digital Dyna Camera, Picker International, Cleveland, Ohio). At the end of the protocol the animal was euthanized with an overdose of pentobarbital and a biodistribution performed. The samples collected for biodistribution (muscle, liver, kidney, bile, spleen, heart, lung thyroid, and urine) and the blood clearance samples were weighed and the amount of activity determined via a gamma well counter (LKB 1282, Wallac Inc).

[1] = at 120 min post-injection, beagle dogs

Substance | route of excretion (anesthetized adult beagle dogs) | clearance from the blood (dog, in vivo, iv) | clearance from the blood (anesthetized adult beagle dogs, slow i.v. infusion over 5 minutes, blood samples up to 120 minutes post infusion) | portion of the radiopharmaceutical located in the bladder [1] | radiopharmaceutical remaining in the blood, the muscle or other organs [1]
[^99mTc (HYPY) (tricine) (TFP)] [Example 5] | predominantly hepatobiliary | Rapid blood clearance | – | – | –
[^99mTc (HYNICamide) (tricine) (TPPTS)] [Example 7] | predominantly renal | – | rapid clearance | vast majority | very little remaining
